Assay results taken from US8765409B2, “Efficient production of heterologous proteins using mannosyl transferase inhibitors” (Merck Sharp & Dohme Corp., priority 2008, dated 2014).

Assays:
[1] = system: O-glycosylation of human anti-Her2 antibody in Pichia pastoris strain yGLY4280 (Pmt-mediated); experiment: O-glycan occupancy of secreted anti-Her2 antibody (Dionex HPAEC-PAD) from shake-flask cultures treated with Pmt inhibitor; format: cell-based; conditions: inhibitor 0.15 ug/mL added at induction; 24 hr in induction media; protein A purified anti-Her2; no inhibitor >14.0
Method: Anti-Her2 protein expression for strain yGLY4280 was carried out in shake flasks at 24° C. with buffered glycerol-complex medium (BMGY) consisting of 1% yeast extract, 2% peptone, 100 mM potassium phosphate buffer pH 6.0, 1.34% yeast nitrogen base, 4×10-5% biotin, and 1% glycerol. The induction medium for protein expression was buffered methanol-complex medium (BMMY) consisting of 1% methanol instead of glycerol in BMGY. Pmt inhibitors in 100% methanol were added to the growth medium to a final concentration of 0.15 ug/mL at the time the induction medium was added. This is an intermediate dose that is sufficient to reduce O-glycosylation to roughly 50% of that observed without Pmt inhibitor treatment, and thus allows a comparison of potency for the different inhibitors. Following 24 hr further growth in the induction media, cultures were harvested and centrifuged at 2,000 rpm for five minutes to remove cells from the supernatant.
O-glycan determination was performed using a Dionex-HPLC(HPAEC-PAD) as follows. To measure O-glycosylation reduction, protein was purified from the growth medium using protein A chromatography (Li et al. Nat. Biotechnol. 24(2):210-5 (2006)) and the O-glycans released from and separated from protein by alkaline elimination (beta-elimination) (Harvey, Mass Spectrometry Reviews 18: 349-451 (1999)). This process also reduces the newly formed reducing terminus of the released O-glycan (either oligomannose or mannose) to mannitol. The mannitol group thus serves as a unique indicator of each O— glycan. 0.5 nmole or more of protein, contained within a volume of 100 μL PBS buffer, was required for beta elimination. The sample was treated with 25 μL alkaline borohydride reagent and incubated at 50° C. for 16 hours. About 20 uL arabitol internal standard was added, followed by 10 μL glacial acetic acid. The sample was then centrifuged through a Millipore filter containing both SEPABEADS and AG 50W-X8 resin and washed with water. The samples, including wash, were transferred to plastic autosampler vials and evaporated to dryness in a centrifugal evaporator. 150 μL 1% AcOH/MeOH was added to the samples and the samples evaporated to dryness in a centrifugal evaporator. This last step was repeated five more times. 200 μL of water was added and 100 μL of the sample was analyzed by high pH anion-exchange chromatography coupled with pulsed electrochemical detection-Dionex HPLC(HPAEC-PAD). Average O-glycan occupancy was determined based upon the amount of mannitol recovered.

[2] = system: O-glycosylation of anti-Her2 heavy chain (Hc) in Pichia pastoris strain yGLY4280; experiment: Western blot of anti-Her2 heavy chain O-glycosylation with 2-fold dilutions of Pmt inhibitor in 96-well plates (FIG. 1); format: cell-based; conditions: 2-fold dilutions 5 to 0.009 ug/mL, 24 hours; for concentration as low as which O-glycosylation of anti-Her2 Hc was effectively reduced: Western blot
From the text: FIG. 1 illustrates the effect of Pmt inhibitors including the novel inhibitor shown as Example 4 on O-glycosylation of secreted recombinant monoclonal antibody in Pichia pastoris. […] Western blotting using an anti-human H+L antibody was used to detect heavy (Hc) and light (Lc) chains in the growth media of strains treated with increasing amounts of Pmt inhibitor (higher doses in left lanes). The slowest migrating band (marked with asterisk) indicates the O-glycosylated Hc which is eliminated by Pmt inhibitor treatment. […] Strain yGLY4280 was inoculated into 96-well deep well plates (Qiagen, Valencia, Calif.) containing 0.5 ml of BMGY media per well. After 24 hours growth with vigorous shaking, the 96-well plate was centrifuged at 2,000 rpm for five minutes to pellet cells. The media was removed and, following a wash step with 0.5 mL of BMMY media, the cells resuspended in 0.2 mL BMMY media in which Pmt inhibitors were diluted 2-fold across the rows (11 wells). Well #1 contained 5 ug/mL of inhibitor, well #2 contained 2.5 ug/mL and so on until well #10 contained 0.009 ug/mL; well #11 contained no inhibitor. After an additional 24 hours growth with vigorous shaking, the plate was centrifuged at 2,000 rpm for five minutes to pellet cells, and the cleared supernatant subjected to Western blot analysis to detect anti-Her2 expression. The Western blotting was performed as follows: seven μL of the supernatants were separated by reducing polyacrylamide gel electrophoresis (SDS-PAGE) according to Laemmli, U. K. (1970) Nature 227, 680-685 and then electroblotted onto nitrocellulose membranes (Schleicher & Schuell, now Whatman, Inc., Florham Park, N.J.). Anti-Her2 antibody chains were detected on the Western blots using a peroxidase-conjugated anti-human Hc and Lc antibody (Calbiochem/EMD Biosciences, La Jolla, Calif.) and developed using the ImmunoPure Metal Enhanced DAB Substrate Kit (Pierce Biotechnology, Rockford, Ill.).

Row | Compound | O-glycan occupancy (moles O-mannose/moles Ab) [1] [moles O-mannose/moles Ab] | concentration as low as which O-glycosylation of anti-Her2 Hc was effectively reduced [2] [µg/mL] | effect on O-glycosylation of anti-Her2 Hc (Western blot, in words) ([2]; FIG. 1)
1 | O=C(O)CN1C(=O)/C(=C/c2ccc(OCCc3ccc(F)cc3)c(OC(c3ccccc3)C3CCCCC3)c2)SC1=S (centres unmarked) [Example 3] | 5.5 |  | 
2 | O=C(O)CN1C(=O)/C(=C/c2ccc(OCCc3ccccc3)c(OC(CO)c3ccccc3)c2)SC1=S (centres unmarked) [Pmti-3, reference compound] | 8.1 | 0.018 | 
3 | COCC(COC)(Oc1cc(/C=C2/SC(=S)N(CC(=O)O)C2=O)ccc1OCCc1ccc(F)cc1)c1ccccc1 [Example 1] | 4.1 |  | 
4 | O=C(O)CN1C(=O)/C(=C/c2ccc(OCCc3ccc(F)cc3)c(OC(c3ccccc3)c3ccccc3)c2)SC1=S [Example 2] | 4.3 |  | 
5 | CC(C)COCC(Oc1cc(/C=C2\SC(=S)N(CC(=O)O)C2=O)ccc1OCCc1ccc(F)cc1)c1ccccc1 (centres unmarked) [Example 4] | 5.2 | 0.018 | reduced O-glycosylation in a dose-dependent fashion
